#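 Five compound concentrations were applied to cells in 96-well plates for 48 hours; endpoints were derived by simple linear interpolation of the resulting dose-response curve. The concentration for 50% growth inhibition is given as GI50.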 Active and inactive are the calls of the source. Rule as the data show it: active = GI50 up to about 1.1 µM and inactive = higher.
# Tests used:
# Experiment in all cases: growth of human tumour cells (NCI), 48 h
# [1] = system: CCRF-CEM
# [2] = system: NCI/ADR-RES
# [3] = system: OVCAR-3
# [4] = system: DMS-114
# [5] = system: RXF 631
# [6] = system: HCT-116
# [7] = system: MDA-N
# [8] = system: SF-295
# [9] = system: SK-MEL-28
# [10] = system: SF-268
# [11] = system: COLO 205
# [12] = system: SNB-19
# [13] = system: KM12
# [14] = system: UACC-257
# [15] = system: IGROV-1
# [16] = system: HOP-62
# [17] = system: LOX IMVI
# [18] = system: OVCAR-5
# [19] = system: MDA-MB-435
# [20] = system: DMS-273
# [21] = system: SNB-78
# [22] = system: MCF7
# [23] = system: RPMI-8226
# [24] = system: Malme-3M
# [25] = system: M14
# [26] = system: BT-549
# [27] = system: SF-539
# [28] = system: TK-10
# [29] = system: HCT-15
# [30] = system: PC-3
# [31] = system: Hs-578T
# [32] = system: EKVX
# [33] = system: OVCAR-8
# [34] = system: MOLT-4
# [35] = system: UACC-62
# [36] = system: DLD-1
# [37] = system: NCI-H23
# [38] = system: XF498
# [39] = system: KM-20L2
# [40] = system: MDA-MB-231
# [41] = system: UO-31
# [42] = system: HL-60
# [43] = system: HCC 2998
# [44] = system: K562
# [45] = system: SNB-75
# [46] = system: M19-MEL
# [47] = system: OVCAR-4
# [48] = system: SK-MEL-5
# [49] = system: SK-MEL-2
# [50] = system: SN12C
# [51] = system: SW-620
# [52] = system: 786-0
# [53] = system: LXFL 529
# [54] = system: SK-OV-3
# [55] = system: HOP-18
# [56] = system: U-251
# [57] = system: CAKI-1
# [58] = system: SR
# [59] = system: NCI-H522
# [60] = system: RXF 393
# [61] = system: ACHN
# [62] = system: NCI-H226
# [63] = system: NCI-H460
# [64] = system: T47D
# [65] = system: HOP-92
# [66] = system: HT-29
# [67] = system: A498
# [68] = system: DU-145
# [69] = system: A549
smiles,measurement,setting,value
COc1cc(/C=C2\CCC(CN(C)C)C2=O)ccc1OC(=O)c1ccccc1 (centres undefined),GI50,[1],1.96 µM (inactive)
same,GI50,[2],16.5 µM (inactive)
same,GI50,[3],8.91 µM (inactive)
same,GI50,[4],15.8 µM (inactive)
same,GI50,[5],11.2 µM (inactive)
same,GI50,[6],6.68 µM (inactive)
same,GI50,[7],15.4 µM (inactive)
same,GI50,[8],17.7 µM (inactive)
same,GI50,[9],15.1 µM (inactive)
same,GI50,[10],12.3 µM (inactive)
same,GI50,[11],5.69 µM (inactive)
same,GI50,[12],11.4 µM (inactive)
same,GI50,[13],2.99 µM (inactive)
same,GI50,[14],13.5 µM (inactive)
same,GI50,[15],13.8 µM (inactive)
same,GI50,[16],16.3 µM (inactive)
same,GI50,[17],3.86 µM (inactive)
same,GI50,[18],18.8 µM (inactive)
same,GI50,[19],14.3 µM (inactive)
same,GI50,[20],11.1 µM (inactive)
same,GI50,[21],19.2 µM (inactive)
same,GI50,[22],6.25 µM (inactive)
same,GI50,[23],2.31 µM (inactive)
same,GI50,[24],15.9 µM (inactive)
same,GI50,[25],9.51 µM (inactive)
same,GI50,[26],16.1 µM (inactive)
same,GI50,[27],14.1 µM (inactive)
same,GI50,[28],11.3 µM (inactive)
same,GI50,[29],8.17 µM
same,GI50,[30],16.4 µM (inactive)
same,GI50,[31],8.02 µM (inactive)
same,GI50,[32],14.2 µM (inactive)
same,GI50,[33],8.59 µM (inactive)
same,GI50,[34],2.28 µM (inactive)
same,GI50,[35],16.5 µM (inactive)
same,GI50,[36],4.67 µM (inactive)
same,GI50,[37],16.1 µM (inactive)
same,GI50,[38],20.3 µM (inactive)
same,GI50,[39],15.9 µM (inactive)
same,GI50,[40],5.47 µM (inactive)
same,GI50,[41],16.3 µM (inactive)
same,GI50,[42],1.91 µM (inactive)
same,GI50,[43],16.3 µM (inactive)
same,GI50,[44],2.32 µM (inactive)
same,GI50,[45],16 µM (inactive)
same,GI50,[46],8.57 µM (inactive)
same,GI50,[47],12.4 µM (inactive)
same,GI50,[48],15.5 µM (inactive)
same,GI50,[49],17.9 µM (inactive)
same,GI50,[50],10.8 µM (inactive)
same,GI50,[51],5.07 µM (inactive)
same,GI50,[52],3.76 µM (inactive)
same,GI50,[53],2.88 µM (inactive)
same,GI50,[54],23.1 µM (inactive)
same,GI50,[55],16.9 µM (inactive)
same,GI50,[56],16.2 µM (inactive)
same,GI50,[57],17.1 µM (inactive)
same,GI50,[58],2.56 µM (inactive)
same,GI50,[59],4 µM (inactive)
same,GI50,[60],7.8 µM (inactive)
same,GI50,[61],15.3 µM (inactive)
same,GI50,[62],18.2 µM (inactive)
same,GI50,[63],19.3 µM (inactive)
same,GI50,[64],3.76 µM (inactive)
same,GI50,[65],17.4 µM (inactive)
same,GI50,[66],8.07 µM (inactive)
same,GI50,[67],18.3 µM (inactive)
same,GI50,[68],16.3 µM (inactive)
same,GI50,[69],23.6 µM (inactive)

# Reference: ChEMBL document CHEMBL1201862, “PubChem BioAssay data set” (2004)
